Test results: ChEMBL document CHEMBL1201862, “PubChem BioAssay data set” (2004)
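Step 1: Grow cells in 96-well plates. Step 2: Expose to compound for 48 hours at 5 concentrations. Step 3: Interpolate endpoints linearly; if unreached, use highest concentration. Abbreviation: GI50, concentration required for 50% inhibition of growth.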 Calls of active or inactive are those of the source. Cut-off read from the data, not from the text of the source: active = GI50 up to about 1.1 µM and inactive = higher. Where a SMILES comes first, the peptide text is derived from it. [ ]: non-standard residue; d: D form. The star is where a group is joined. Phe(4-NO2) = N[CH](Cc1ccc([N+](=O)[O-])cc1)C(=O)O; Boc = CC(C)(C)OC(=O)*; OBn = c1ccc(CO*)cc1

Assays:
Assay in all cases: inhibition of tumour cell growth, NCI panel, 48 h
DLD-1 = test system: DLD-1
HCT-116 = test system: HCT-116
HT-29 = test system: HT-29
MOLT-4 = test system: MOLT-4
NCI-H23 = test system: NCI-H23
OVCAR-8 = test system: OVCAR-8
RPMI-8226 = test system: RPMI-8226
SF-295 = test system: SF-295
SK-MEL-28 = test system: SK-MEL-28
SK-MEL-2 = test system: SK-MEL-2
SK-MEL-5 = test system: SK-MEL-5
U-251 = test system: U-251
UACC-257 = test system: UACC-257
EKVX = test system: EKVX
SNB-19 = test system: SNB-19
SW-620 = test system: SW-620
MDA-MB-231 = test system: MDA-MB-231
MDA-MB-435 = test system: MDA-MB-435
PC-3 = test system: PC-3
T47D = test system: T47D

Row | SMILES | GI50 (DLD-1) | GI50 (HCT-116) | GI50 (HT-29) | GI50 (MOLT-4) | GI50 (NCI-H23) | GI50 (OVCAR-8) | GI50 (RPMI-8226) | GI50 (SF-295) | GI50 (SK-MEL-28) | GI50 (SK-MEL-2) | GI50 (SK-MEL-5) | GI50 (U-251) | GI50 (UACC-257) | GI50 (EKVX) | GI50 (SNB-19) | GI50 (SW-620) | GI50 (MDA-MB-231) | GI50 (MDA-MB-435) | GI50 (PC-3) | GI50 (T47D)
1 | O=C(O)CSc1nnc(COc2ccccc2)n1-c1ccccc1 | > 100 µM (inactive) | > 100 µM (inactive) | > 100 µM (inactive) | > 100 µM (inactive) | > 100 µM (inactive) | > 100 µM (inactive) | > 100 µM (inactive) | > 100 µM (inactive) | > 100 µM (inactive) | > 100 µM (inactive) | > 100 µM (inactive) | > 100 µM (inactive) | > 100 µM (inactive) | – | – | – | – | – | – | –
2 | CN1C(=O)CC(CC(=O)C2CCCCC2=O)CC1=O (stereo not drawn) | > 100 µM (inactive) | > 100 µM (inactive) | > 100 µM (inactive) | > 100 µM (inactive) | > 100 µM (inactive) | > 100 µM (inactive) | > 100 µM (inactive) | > 100 µM (inactive) | > 100 µM (inactive) | – | – | > 100 µM (inactive) | > 100 µM (inactive) | > 100 µM (inactive) | > 100 µM (inactive) | > 100 µM (inactive) | – | – | – | –
3 | Cc1ccc(NC(=O)CC2SC(=N)NC2=O)cc1C (stereo not drawn) | > 100 µM (inactive) | > 100 µM (inactive) | > 100 µM (inactive) | > 100 µM (inactive) | > 100 µM (inactive) | > 100 µM (inactive) | > 100 µM (inactive) | > 100 µM (inactive) | > 100 µM (inactive) | > 100 µM (inactive) | – | 64.3 µM (inactive) | > 100 µM (inactive) | – | > 100 µM (inactive) | > 100 µM (inactive) | – | – | – | –
4 | CN(C)/C=N/c1nc2ncn(CCOC(=O)c3ccccc3)c2c(=O)[nH]1 | > 100 µM (inactive) | > 100 µM (inactive) | > 100 µM (inactive) | – | – | > 100 µM (inactive) | > 100 µM (inactive) | > 100 µM (inactive) | > 100 µM (inactive) | > 100 µM (inactive) | > 100 µM (inactive) | > 100 µM (inactive) | > 100 µM (inactive) | > 100 µM (inactive) | – | > 100 µM (inactive) | – | – | – | –
5 | N#CC(C#N)=c1[nH]c2cccc3c2-c2c(cccc2c3=C(C#N)C#N)[nH]1 | > 100 µM (inactive) | 80.7 µM (inactive) | > 100 µM (inactive) | > 100 µM (inactive) | > 100 µM (inactive) | > 100 µM (inactive) | > 100 µM (inactive) | > 100 µM (inactive) | – | – | > 100 µM (inactive) | > 100 µM (inactive) | > 100 µM (inactive) | > 100 µM (inactive) | > 100 µM (inactive) | > 100 µM (inactive) | – | – | – | –
6 | Cc1ccc(C(=O)Oc2ccc(/C=C3\CCC/C(=C\c4ccc(OC(=O)c5ccc(C)cc5)cc4)C3=O)cc2)cc1 | – | > 100 µM (inactive) | > 100 µM (inactive) | > 100 µM (inactive) | > 100 µM (inactive) | > 100 µM (inactive) | > 100 µM (inactive) | > 100 µM (inactive) | > 100 µM (inactive) | > 100 µM (inactive) | > 100 µM (inactive) | > 100 µM (inactive) | > 100 µM (inactive) | > 100 µM (inactive) | > 100 µM (inactive) | > 100 µM (inactive) | > 100 µM (inactive) | > 100 µM (inactive) | > 100 µM (inactive) | > 100 µM (inactive)
7 | Cc1nnc(N/N=C2/C(=O)Nc3c(Cl)cc(Cl)cc32)n1N | > 100 µM (inactive) | > 100 µM (inactive) | > 100 µM (inactive) | 44.8 µM (inactive) | > 100 µM (inactive) | > 100 µM (inactive) | > 100 µM (inactive) | > 100 µM (inactive) | > 100 µM (inactive) | > 100 µM (inactive) | – | > 100 µM (inactive) | > 100 µM (inactive) | > 100 µM (inactive) | > 100 µM (inactive) | > 100 µM (inactive) | – | – | – | –
8 | CN1Cc2c(nc(-c3ccc(Br)cc3)c[n+]2[O-])N(C)C1 | > 100 µM (inactive) | > 100 µM (inactive) | > 100 µM (inactive) | > 100 µM (inactive) | > 100 µM (inactive) | > 100 µM (inactive) | – | > 100 µM (inactive) | > 100 µM (inactive) | > 100 µM (inactive) | > 100 µM (inactive) | > 100 µM (inactive) | > 100 µM (inactive) | > 100 µM (inactive) | > 100 µM (inactive) | > 100 µM (inactive) | – | – | – | –
9 | O=C(Nc1sccc1S(=O)(=O)c1ccc(Cl)cc1)c1ccc(Cl)cc1Cl | – | > 100 µM (inactive) | > 76.2 µM (inactive) | > 85.9 µM (inactive) | > 81.3 µM (inactive) | > 100 µM (inactive) | 10.7 µM (inactive) | 37.8 µM (inactive) | > 100 µM (inactive) | > 100 µM (inactive) | 47 µM (inactive) | > 78.7 µM (inactive) | 23.4 µM (inactive) | > 79.4 µM (inactive) | > 100 µM (inactive) | > 100 µM (inactive) | > 100 µM (inactive) | 14.5 µM (inactive) | > 100 µM (inactive) | 19.1 µM (inactive)
10 | O=C1SC(SCc2ccccc2)=NC12CC2c1ccccc1 (stereo not drawn) | – | 16.6 µM (inactive) | 21.3 µM (inactive) | 1.34 µM (inactive) | 20.1 µM (inactive) | 19.4 µM (inactive) | 16.7 µM (inactive) | 19.7 µM (inactive) | 19 µM (inactive) | 18.7 µM (inactive) | 17.8 µM (inactive) | 18.3 µM (inactive) | 16.8 µM (inactive) | 20.2 µM (inactive) | 26.7 µM (inactive) | 22.4 µM (inactive) | 20.3 µM (inactive) | 22.1 µM (inactive) | 23.3 µM (inactive) | 28.5 µM (inactive)
11 | CC(=O)OCC1OC(N2C(=O)[C@@H](Oc3ccccc3)[C@H]2/C=C/c2ccccc2)C(OC(C)=O)C(OC(C)=O)C1OC(C)=O (stereo partly drawn) | > 100 µM (inactive) | > 100 µM (inactive) | > 100 µM (inactive) | > 100 µM (inactive) | > 100 µM (inactive) | > 100 µM (inactive) | > 100 µM (inactive) | 53.6 µM (inactive) | > 100 µM (inactive) | > 100 µM (inactive) | > 100 µM (inactive) | 58.9 µM (inactive) | > 100 µM (inactive) | > 100 µM (inactive) | 31.6 µM (inactive) | > 100 µM (inactive) | – | – | – | –
12 | CC(C)C/N=C(\N)N=C(N)N | – | > 100 µM (inactive) | > 100 µM (inactive) | > 100 µM (inactive) | > 100 µM (inactive) | > 100 µM (inactive) | > 100 µM (inactive) | > 100 µM (inactive) | > 100 µM (inactive) | > 100 µM (inactive) | > 100 µM (inactive) | > 100 µM (inactive) | > 100 µM (inactive) | > 100 µM (inactive) | > 100 µM (inactive) | > 100 µM (inactive) | > 100 µM (inactive) | > 100 µM (inactive) | > 100 µM (inactive) | > 100 µM (inactive)
13 | O=C(c1ccc(Cl)cc1Cl)C1[C@H]2C(=O)N(c3ccc(Cc4ccc(N5C(=O)[C@@H]6ON(c7ccccc7)C(C(=O)c7ccc(Cl)cc7Cl)[C@@H]6C5=O)cc4)cc3)C(=O)[C@H]2ON1c1ccccc1 (stereo partly drawn) | > 50 µM (inactive) | > 50 µM (inactive) | > 50 µM (inactive) | > 50 µM (inactive) | > 50 µM (inactive) | > 50 µM (inactive) | > 50 µM (inactive) | > 50 µM (inactive) | > 50 µM (inactive) | > 50 µM (inactive) | > 50 µM (inactive) | > 50 µM (inactive) | > 50 µM (inactive) | – | > 50 µM (inactive) | > 50 µM (inactive) | – | – | – | –
14 | CC1C=C(CCCCCCCCCCCC[C@@H](O)[C@@H]2CC[C@@H]([C@@H]3CC[C@@H](C(O)CCCCCCCCCCCCC4=C[C@H](C)OC4=O)O3)O2)C(=O)O1 (stereo partly drawn) | > 100 µM (inactive) | – | > 79.1 µM (inactive) | 11.6 µM (inactive) | < 0.0422 µM (active) | 25.5 µM (inactive) | 0.518 µM (active) | 0.078 µM (active) | > 100 µM (inactive) | > 100 µM (inactive) | 0.0783 µM (active) | 23.7 µM (inactive) | 0.387 µM (active) | 1.44 µM (inactive) | > 42.5 µM (inactive) | > 57.3 µM (inactive) | – | – | – | –
15 | COC(=O)CCC(NC(=O)OC(C)(C)C)C(=O)NC(Cc1ccc([N+](=O)[O-])cc1)C(=O)NCC(=O)OCc1ccccc1 (stereo not drawn) (Boc-Glu(OMe)-[Phe(4-NO2)]-Gly-OBn; configuration not given here) | – | > 100 µM (inactive) | > 100 µM (inactive) | > 100 µM (inactive) | > 78.9 µM (inactive) | 46.7 µM (inactive) | > 100 µM (inactive) | > 48.5 µM (inactive) | > 100 µM (inactive) | > 77.1 µM (inactive) | > 100 µM (inactive) | 55.3 µM (inactive) | > 100 µM (inactive) | > 60.8 µM (inactive) | > 55.7 µM (inactive) | > 100 µM (inactive) | > 60 µM (inactive) | > 100 µM (inactive) | > 100 µM (inactive) | > 100 µM (inactive)
16 | CCN(CC)C(=S)S [DITIOCARB SODIUM] | 88.5 µM (inactive) | 0.0323 µM (active) | 0.216 µM (active) | – | – | > 56.1 µM (inactive) | 0.528 µM (active) | > 79.6 µM (inactive) | > 47.9 µM (inactive) | > 81.1 µM (inactive) | 1.63 µM (inactive) | 0.299 µM (active) | 21.2 µM (inactive) | > 100 µM (inactive) | > 100 µM (inactive) | 0.117 µM (active) | – | – | – | –
